Experimental data: article PMC11284787, “Ligand-Directed Labeling of the Adenosine A1 Receptor in Living Cells” (Journal of Medicinal Chemistry, 2024)

Test system: T1, SNAP-hA1AR
T1 construct: expressed in transfected cells; host or cells: HEK293T, transient transfection (FuGENE HD)
Assay: Live-cell confocal microscopy of SNAP-hA1AR HEK293T cells
Format: cell-based, human
Settings: for fluorescent labeling of SNAP-hA1AR at the plasma membrane: 125 nM 11 or 50 nM 12 (then MetTet-SulfoCy5) for 2 h; for labeling of SNAP-hA1AR after pretreatment with 10 μM DPCPX: 10 μM DPCPX pretreatment 30 min; for fluorescence intensity after 10 μM DPCPX added to prelabeled cells: prelabeled 2 h, then 10 μM DPCPX 1 h, P > 0.05
Excerpt: Having investigated the molecular pharmacology of 11 and 12 in a series of in vitro assays, we sought to apply the LD probes for studying A1AR localization and dynamics in living cells. To this end, LD probes 11 and 12 were initially used in confocal microscopy studies to test their ability to label and allow visualization of the SNAP-hA1AR in living HEK293T cells (Figure 6). […] With both probes, the fluorescence labeling colocalized with SNAP-hA1AR labeled with AF488 (Figure 6A,C top frames).
Cells were labeled with membrane impermeable SNAP-AF488 for 30 min prior to treatment with 11 and 12 for 2 h, respectively, with the latter followed by the addition of 1 μM methyltetrazine (Met-Tet) SulfoCy5 for 5 min prior to the acquisition of the single equatorial images. […] For all the conditions, left-hand frames represent the SulfoCy5 channel (magenta), middle frames are the SNAP-hA1AR AF488 (green) channel, and right-hand frames represent merged images of both channels, with white indicating the overlap of magenta and green. (B, E) Fluorescence intensity plots (16-bit) were generated for both SulfoCy5 and AF488 channels by hand drawing the region of interest (ROI) in images obtained as indicated in (A) and (C) using ImageJ (FIJI). Data points represent membrane fluorescence signals measured from ROI drawn in each cell, and error bars represent mean ± standard deviation (SD). Images are representative of images obtained from three independent experiments from which 72 to 83 cells were analyzed. Scale bars are = 13 μm for (A) and 10 μm for (C). (D) Schematic representation of the biorthogonal IEDDA reaction between the TCO group (covalently attached to the hA1AR by ligand-directed chemistry) and SulfoCy5-conjugated methyltetrazine (MetTet-SulfoCy5). Following the click IEDDA reaction, the formation of the 4,5-dihydropyridazine cycloadduct increases the fluorescence intensity of the fluorophore conjugated to the tetrazine moiety. […]
using a Zeiss LSM880 confocal microscope as described in the confocal imaging […]
HEK293T cells were seeded in 8-well plates (Nunc Lab-Tek, Thermo Fischer Scientific), pre-coated with Poly-D-Lysine, at 20,000 cells/well in DMEM/10% FCS.
24 h post seeding, cells were transiently transfected with human SNAP-A1. Transient transfections were carried out following manufacturer’s protocol: used FuGENE HD at 3:1 ratio of reagent to cDNA with a total of 300 ng cDNA per well. Transfection solutions were made up in Gibco Opti-MEM (Thermo Fischer Scientific), incubated at RT for 5 min and added as 11 µL per well. Cells were incubated for additional 24 h at 37 OC, 5% CO2. On the day of the experiment medium was removed and the cells were labelled for 30 min at 37 °C with 0.2 µM SNAP-surface AF488 in SFM. After washing twice with SFM the cells were treated with or without 10 µM competitive A 1AR- […]
Following the incubation step, the ligand-directed probe under investigation (SulfoCy5 or PEG-TCO) (11 or 12) was added to the appropriate wells at the required concentrations and incubated for 2 h. After that time, cells were washed 4x with warm HBSS, followed by the addition of 300 µL warm HBSS and imaged. For click-chemistry reactions, after washing 4x with warm HBSS, cells pre-labelled with the trans-cyclooctene-conjugated 12 (PEG-TCO) at 50 nM were subsequently treated with 1 µM Methyl-TetrazineSulfoCy5 (Lumiprobe, Germany) for 5 min at RT in the dark. Cells were washed 2x with warm HBSS and imaged. When […]
1 h before imaging. […]
Live cell imaging was performed using either a Zeiss LSM 710 or LSM880 laser scanning confocal microscope fitted with a Zeiss C-Apochromat 40 × 1.2 NA water immersion objective. A 633 nm HeNe laser was used for the excitation of SulfoCy5 fluorophore and a 488/561/633 dichroic, and the emission was detected between 634 […]
and 755 nm. A 488 nm […] laser was used to excite SNAP-AF488 and the emission was detected between 493 and 586 nm. The pinhole diameter (1 Airy Unit; 1.1 μm […]

Row | SMILES | fluorescent labeling of SNAP-hA1AR at the plasma membrane | labeling of SNAP-hA1AR after pretreatment with 10 μM DPCPX | fluorescence intensity after 10 μM DPCPX added to prelabeled cells
1 | CCCCn1c(=O)c2[nH]c(C34CCC(C(=O)NCCNC(=O)CCNC(=O)c5ccc(OC(=O)CCCCC[N+]6=C(/C=C/C=C/C=C7/N(C)c8ccc(S(=O)(=O)O)cc8C7(C)C)C(C)(C)c7cc(S(=O)(=O)[O-])ccc76)c(F)c5)(CC3)CC4)nc2n(CCCC)c1=O [Compound 11, 1-(6-(4-((3-((2-(4-(1,3-Dibutyl-2,6-dioxo-2,3,6,7-tetrahydro-1H-purin-8-yl)bicyclo[2.2.2]octane-1-carboxamido)ethyl)amino)-3-oxopropyl)carbamoyl)-2-fluorophenoxy)-6-oxohexyl)-3,3-dimethyl-2-((1E,3E)-5-((E)-1,3,3-trimethyl-5-sulfoindolin-2-ylidene)penta-1,3-dien-1-yl)-3H-indol-1-ium-5-sulfonate] | Clear fluorescent labeling | prevented the labeling | did not change their fluorescence intensities
2 | CCCCn1c(=O)c2[nH]c(C34CCC(C(=O)NCCNC(=O)CCNC(=O)c5ccc(OC(=O)CCC(=O)NCCOCCOCCNC(=O)O[C@H]6CC/C=C/CCC6)c(F)c5)(CC3)CC4)nc2n(CCCC)c1=O [Compound 12, 4-((3-((2-(4-(1,3-Dibutyl-2,6-dioxo-2,3,6,7-tetrahydro-1H-purin-8-yl)bicyclo[2.2.2]octane-1-carboxamido)ethyl)amino)-3-oxopropyl)carbamoyl)-2-fluorophenyl (R,E)-1-(Cyclooct-4-en-1-yloxy)-1,12-dioxo-5,8-dioxa-2,11-diazapentadecan-15-oate] | Clear fluorescent labeling | prevented the labeling | did not change their fluorescence intensities
